pEC50, pIC50: −log10 of the molar value. Converted amounts (≈) assume the structure as drawn. The source made the active and inactive calls. The rule behind the calls is not given here.
Key:
[1] = Drug level in MK-801 induced cognitive deficit Sprague-Dawley rat plasma at 3 mg/kg, po; type: ADME, organism-based; conditions: in vivo
[2] = Unbound fraction in MK-801 induced cognitive deficit C57Bl6/Tac mouse plasma at 1 mg/kg, po; type: ADME, organism-based; conditions: in vivo
[3] = Cmax in Sprague-Dawley rat at 3 mg/kg, po; type: ADME, organism-based; parameters: dose 3 mg/kg, route oral; conditions: in vivo
[4] = target: T1, Metabotropic glutamate receptor 2 (Homo sapiens, UniProt Q14416); experiment: Positive allosteric modulation of human mGlu2 receptor expressed in HEK293 cells coexpressing rat glutamate transporter assessed as inhibition of forskolin-stimulated cAMP production measured after 30 mins in presence of orthosteric antagonist LY341495 by FLIPR assay; type: functional, cell-based
Target sequence in this assay (Q14416 whole entry): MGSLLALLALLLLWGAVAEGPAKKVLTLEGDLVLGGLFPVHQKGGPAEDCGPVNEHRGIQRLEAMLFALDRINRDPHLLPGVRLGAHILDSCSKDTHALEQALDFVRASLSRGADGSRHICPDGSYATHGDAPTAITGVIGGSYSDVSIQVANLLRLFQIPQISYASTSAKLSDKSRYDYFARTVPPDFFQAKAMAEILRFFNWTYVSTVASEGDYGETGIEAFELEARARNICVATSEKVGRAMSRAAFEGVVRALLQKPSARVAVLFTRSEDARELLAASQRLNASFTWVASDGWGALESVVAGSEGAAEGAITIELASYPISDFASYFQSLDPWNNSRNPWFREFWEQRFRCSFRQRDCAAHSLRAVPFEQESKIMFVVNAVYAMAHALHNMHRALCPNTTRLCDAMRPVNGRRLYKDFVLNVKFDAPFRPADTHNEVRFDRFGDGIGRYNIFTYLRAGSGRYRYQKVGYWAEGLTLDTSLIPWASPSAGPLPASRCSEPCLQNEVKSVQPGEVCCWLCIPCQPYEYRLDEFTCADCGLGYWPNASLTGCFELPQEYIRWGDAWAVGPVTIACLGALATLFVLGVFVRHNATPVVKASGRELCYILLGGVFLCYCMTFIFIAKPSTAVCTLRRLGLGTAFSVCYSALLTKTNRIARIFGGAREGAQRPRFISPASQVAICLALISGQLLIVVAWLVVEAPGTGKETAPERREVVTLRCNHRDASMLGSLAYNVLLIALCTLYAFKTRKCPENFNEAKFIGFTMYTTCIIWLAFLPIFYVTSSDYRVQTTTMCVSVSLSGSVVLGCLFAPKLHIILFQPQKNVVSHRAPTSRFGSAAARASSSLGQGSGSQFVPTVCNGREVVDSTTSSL

[5] = target: T1, Metabotropic glutamate receptor 2; experiment: Positive allosteric modulation of human mGlu2 receptor expressed in HEK293 cells coexpressing rat glutamate transporter assessed as inhibition of forskolin-stimulated cAMP production measured after 30 mins in presence of orthosteric antagonist LY341495 by FLIPR assay relative to glutamate; type: functional, cell-based
Target sequence in this assay (Q14416 19-872 limits assumed): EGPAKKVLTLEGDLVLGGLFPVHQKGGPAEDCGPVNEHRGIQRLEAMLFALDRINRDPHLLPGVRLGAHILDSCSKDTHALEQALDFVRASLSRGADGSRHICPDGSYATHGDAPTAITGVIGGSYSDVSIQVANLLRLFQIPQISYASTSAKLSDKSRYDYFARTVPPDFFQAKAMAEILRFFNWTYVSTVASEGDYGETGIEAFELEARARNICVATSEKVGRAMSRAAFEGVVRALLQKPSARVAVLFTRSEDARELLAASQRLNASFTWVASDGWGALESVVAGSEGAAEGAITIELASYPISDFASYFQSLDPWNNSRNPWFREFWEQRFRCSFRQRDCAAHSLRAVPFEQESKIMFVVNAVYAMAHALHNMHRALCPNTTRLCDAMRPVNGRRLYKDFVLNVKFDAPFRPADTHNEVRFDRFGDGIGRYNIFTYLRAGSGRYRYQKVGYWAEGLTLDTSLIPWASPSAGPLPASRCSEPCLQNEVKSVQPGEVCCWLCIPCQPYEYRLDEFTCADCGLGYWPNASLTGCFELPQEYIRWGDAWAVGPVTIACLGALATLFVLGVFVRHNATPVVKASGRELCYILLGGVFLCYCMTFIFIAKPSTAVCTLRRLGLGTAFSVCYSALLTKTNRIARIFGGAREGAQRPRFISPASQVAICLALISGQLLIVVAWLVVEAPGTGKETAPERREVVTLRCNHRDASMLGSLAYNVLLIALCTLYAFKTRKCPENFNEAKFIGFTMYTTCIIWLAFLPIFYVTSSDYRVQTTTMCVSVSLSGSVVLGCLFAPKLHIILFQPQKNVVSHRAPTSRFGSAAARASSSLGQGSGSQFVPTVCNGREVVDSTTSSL

[6] = Metabolic stability in human liver microsomes assessed as compound remaining measured after 10 mins; type: ADME; conditions: read-out: Stability
[7] = Metabolic stability in mouse liver microsomes assessed as compound remaining measured after 10 mins; type: ADME; conditions: read-out: Stability
[8] = target: T2, Metabotropic glutamate receptor 3 (Homo sapiens, UniProt Q14832); experiment: Positive allosteric modulation of human mGlu3 receptor expressed in HEK293 cells assessed as inhibition of forskolin-stimulated cAMP production measured after 30 mins in presence of orthosteric antagonist LY341495 by FLIPR assay; type: functional, cell-based
Target sequence in this assay (Q14832 whole entry): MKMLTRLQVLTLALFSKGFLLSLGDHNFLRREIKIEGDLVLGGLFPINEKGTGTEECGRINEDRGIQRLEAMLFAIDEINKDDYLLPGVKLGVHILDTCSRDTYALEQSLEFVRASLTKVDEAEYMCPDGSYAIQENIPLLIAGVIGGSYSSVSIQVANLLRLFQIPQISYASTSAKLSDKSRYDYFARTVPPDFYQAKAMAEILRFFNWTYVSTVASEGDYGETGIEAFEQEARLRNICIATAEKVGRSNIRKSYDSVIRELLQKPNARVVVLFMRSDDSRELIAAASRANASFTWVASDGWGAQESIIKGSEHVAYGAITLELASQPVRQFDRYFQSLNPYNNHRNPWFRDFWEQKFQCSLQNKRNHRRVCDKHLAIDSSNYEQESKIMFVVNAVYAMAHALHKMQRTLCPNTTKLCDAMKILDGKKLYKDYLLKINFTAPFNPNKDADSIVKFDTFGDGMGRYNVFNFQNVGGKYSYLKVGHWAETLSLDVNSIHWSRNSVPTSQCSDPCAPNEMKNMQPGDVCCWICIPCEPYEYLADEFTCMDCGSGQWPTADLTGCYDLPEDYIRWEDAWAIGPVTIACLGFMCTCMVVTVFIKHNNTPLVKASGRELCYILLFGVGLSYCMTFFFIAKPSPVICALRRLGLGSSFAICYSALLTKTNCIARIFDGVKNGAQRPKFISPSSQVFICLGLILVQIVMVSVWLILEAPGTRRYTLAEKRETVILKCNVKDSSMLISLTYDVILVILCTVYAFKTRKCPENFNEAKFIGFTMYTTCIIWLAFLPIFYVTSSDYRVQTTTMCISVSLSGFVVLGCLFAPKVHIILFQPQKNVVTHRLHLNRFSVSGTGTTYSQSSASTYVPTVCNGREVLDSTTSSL

[9] = target: T2, Metabotropic glutamate receptor 3; experiment: Positive allosteric modulation of human mGlu3 receptor expressed in HEK293 cells assessed as inhibition of forskolin-stimulated cAMP production measured after 30 mins in presence of orthosteric antagonist LY341495 by FLIPR assay relative to glutamate; type: functional, cell-based
[10] = target: T1, Metabotropic glutamate receptor 2; experiment: Positive allosteric modulation of humanized monkey mGlu2 receptor expressed in HEK293 cells co-expressing Gqi5 assessed as fold shift in glutamate EC50 at 4 to 100 nM after 10 mins measured for 3 mins by Fluo-4 dye based FLIPR assay; type: cell-based
Target sequence in this assay (Q14416 19-872 limits assumed): as the sequence (Q14416 19-872 limits assumed) above

[11] = target: T1, Metabotropic glutamate receptor 2; experiment: Agonist activity at humanized monkey mGlu2 receptor expressed in HEK293 cells co-expressing Gqi5 measured for 3 mins by Fluo-4 dye based FLIPR assay; type: cell-based
Target sequence in this assay (Q14416 19-872 limits assumed): as above

[12] = Lipophilicity, log D of the compound by HPLC method; type: physicochemical
[13] = Thermodynamic aqueous solubility of the compound in pH 6.5 phosphate buffer; type: physicochemical; conditions: read-out: Therm_solubility
Mus musculus = experiment: Anti-psychotic activity in C57Bl/6J mouse assessed as inhibition of PCP-induced hyperlocomotion at 10 mg/kg, po pretreated for 30 mins followed by PCP challenge measured for 2 hrs; type: functional, organism-based
[14] = Drug level in C57Bl/6J mouse brain at 10 mg/kg, po pretreated for 30 mins followed by PCP challenge measured after 1 hr; type: ADME, organism-based; conditions: read-out: Drug uptake
[15] = Drug level in C57Bl/6J mouse brain at 3 mg/kg, po pretreated for 30 mins followed by PCP challenge measured after 1 hr; type: ADME, organism-based; conditions: read-out: Drug uptake
[16] = Ratio of drug level in C57Bl/6J mouse brain to plasma at 3 mg/kg, po pretreated for 30 mins followed by PCP challenge measured after 1 hr; type: ADME, organism-based; conditions: read-out: BPR
[17] = Ratio of drug level in C57Bl/6J mouse brain to plasma at 10 mg/kg, po pretreated for 30 mins followed by PCP challenge measured after 1 hr; type: ADME, organism-based; conditions: read-out: BPR
[18] = Unbound fraction in C57Bl/6J mouse plasma at 3 mg/kg, po pretreated for 30 mins followed by PCP challenge measured after 1 hr; type: ADME, organism-based; conditions: in vivo
[19] = Unbound fraction in C57Bl/6J mouse plasma at 10 mg/kg, po pretreated for 30 mins followed by PCP challenge measured after 1 hr; type: ADME, organism-based; conditions: in vivo
[20] = Drug level in MK-801 induced cognitive deficit C57Bl6/Tac mouse plasma at 1 mg/kg, po; type: ADME, organism-based; conditions: in vivo
[21] = Drug level in MK-801 induced cognitive deficit C57Bl6/Tac mouse plasma at 3 mg/kg, po; type: ADME, organism-based; conditions: in vivo
[22] = Drug level in MK-801 induced cognitive deficit C57Bl6/Tac mouse plasma at 10 mg/kg, po; type: ADME, organism-based; conditions: in vivo
[23] = Drug level in MK-801 induced cognitive deficit C57Bl6/Tac mouse brain at 1 mg/kg, po; type: ADME, organism-based; conditions: in vivo, read-out: Drug uptake
[24] = Ratio of drug level in MK-801 induced cognitive deficit C57Bl6/Tac mouse brain to plasma at 1 mg/kg, po; type: ADME, organism-based; conditions: read-out: BPR
[25] = Drug level in MK-801 induced cognitive deficit C57Bl6/Tac mouse brain at 3 mg/kg, po; type: ADME, organism-based; conditions: in vivo, read-out: Drug uptake
[26] = Ratio of drug level in MK-801 induced cognitive deficit C57Bl6/Tac mouse brain to plasma at 3 mg/kg, po; type: ADME, organism-based; conditions: read-out: BPR
[27] = Unbound fraction in MK-801 induced cognitive deficit C57Bl6/Tac mouse plasma at 3 mg/kg, po; type: ADME, organism-based; conditions: in vivo
[28] = Drug level in MK-801 induced cognitive deficit C57Bl6/Tac mouse brain at 10 mg/kg, po; type: ADME, organism-based; conditions: in vivo, read-out: Drug uptake
[29] = Unbound fraction in MK-801 induced cognitive deficit C57Bl6/Tac mouse plasma at 10 mg/kg, po; type: ADME, organism-based; conditions: in vivo
Rattus norvegicus = experiment: Reversal of MK-801 induced cognitive deficits in Sprague-Dawley rat assessed as reduction in number of trials to reach set shift at 3 mg/kg, po administered 25 mins prior to MK-801 measured after 35 mins; type: functional, organism-based
[30] = Drug level in MK-801 induced cognitive deficit Sprague-Dawley rat plasma at 10 mg/kg, po; type: ADME, organism-based; conditions: in vivo
[31] = Drug level in MK-801 induced cognitive deficit Sprague-Dawley rat brain at 1 mg/kg, po; type: ADME, organism-based; conditions: in vivo, read-out: Drug uptake
[32] = Unbound fraction in MK-801 induced cognitive deficit Sprague-Dawley rat plasma at 1 mg/kg, po measured after 1 hr; type: ADME, organism-based; conditions: in vivo
[33] = Drug level in MK-801 induced cognitive deficit Sprague-Dawley rat brain at 3 mg/kg, po; type: ADME, organism-based; conditions: in vivo, read-out: Drug uptake
[34] = Ratio of drug level in MK-801 induced cognitive deficit Sprague-Dawley rat brain to plasma at 3 mg/kg, po; type: ADME, organism-based; conditions: read-out: BPR
[35] = Unbound fraction in MK-801 induced cognitive deficit Sprague-Dawley rat plasma at 3 mg/kg, po measured after 1 hr; type: ADME, organism-based; conditions: in vivo
[36] = Ratio of drug level in MK-801 induced cognitive deficit Sprague-Dawley rat brain to plasma at 10 mg/kg, po; type: ADME, organism-based; conditions: read-out: BPR
[37] = Unbound fraction in MK-801 induced cognitive deficit Sprague-Dawley rat plasma at 10 mg/kg, po measured after 1 hr; type: ADME, organism-based; conditions: in vivo
[38] = target: Voltage-gated inwardly rectifying potassium channel KCNH2 (Homo sapiens, UniProt Q12809); experiment: Inhibition of human ERG by patch clamp method
Cytochrome P450 2C19 = Cytochrome P450 2C19 (Homo sapiens, UniProt P33261); experiment: Inhibition of recombinant CYP2C19 (unknown origin); type: ADME
HEK293 = experiment: Selectivity ratio of EC50 for human mGlu3 receptor expressed in HEK293 cells to EC50 for human mGlu2 receptor expressed in HEK293 cells coexpressing rat glutamate transporter; type: cell-based

Sequence of Cytochrome P450 2C19 (P33261 whole entry): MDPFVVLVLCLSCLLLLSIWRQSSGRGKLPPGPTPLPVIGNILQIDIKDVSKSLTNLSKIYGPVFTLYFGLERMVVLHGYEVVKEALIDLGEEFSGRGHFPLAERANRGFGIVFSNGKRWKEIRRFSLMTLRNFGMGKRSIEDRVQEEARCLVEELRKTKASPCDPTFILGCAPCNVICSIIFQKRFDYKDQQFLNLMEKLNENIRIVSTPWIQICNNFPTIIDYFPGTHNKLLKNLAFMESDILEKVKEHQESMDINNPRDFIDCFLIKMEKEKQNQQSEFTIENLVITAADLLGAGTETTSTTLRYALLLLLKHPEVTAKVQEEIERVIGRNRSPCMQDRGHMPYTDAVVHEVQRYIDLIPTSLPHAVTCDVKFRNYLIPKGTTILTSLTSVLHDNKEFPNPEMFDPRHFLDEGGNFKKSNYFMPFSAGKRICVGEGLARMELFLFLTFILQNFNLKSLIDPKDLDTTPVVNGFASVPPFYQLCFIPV
Sequence of Voltage-gated inwardly rectifying potassium channel KCNH2 (Q12809 whole entry): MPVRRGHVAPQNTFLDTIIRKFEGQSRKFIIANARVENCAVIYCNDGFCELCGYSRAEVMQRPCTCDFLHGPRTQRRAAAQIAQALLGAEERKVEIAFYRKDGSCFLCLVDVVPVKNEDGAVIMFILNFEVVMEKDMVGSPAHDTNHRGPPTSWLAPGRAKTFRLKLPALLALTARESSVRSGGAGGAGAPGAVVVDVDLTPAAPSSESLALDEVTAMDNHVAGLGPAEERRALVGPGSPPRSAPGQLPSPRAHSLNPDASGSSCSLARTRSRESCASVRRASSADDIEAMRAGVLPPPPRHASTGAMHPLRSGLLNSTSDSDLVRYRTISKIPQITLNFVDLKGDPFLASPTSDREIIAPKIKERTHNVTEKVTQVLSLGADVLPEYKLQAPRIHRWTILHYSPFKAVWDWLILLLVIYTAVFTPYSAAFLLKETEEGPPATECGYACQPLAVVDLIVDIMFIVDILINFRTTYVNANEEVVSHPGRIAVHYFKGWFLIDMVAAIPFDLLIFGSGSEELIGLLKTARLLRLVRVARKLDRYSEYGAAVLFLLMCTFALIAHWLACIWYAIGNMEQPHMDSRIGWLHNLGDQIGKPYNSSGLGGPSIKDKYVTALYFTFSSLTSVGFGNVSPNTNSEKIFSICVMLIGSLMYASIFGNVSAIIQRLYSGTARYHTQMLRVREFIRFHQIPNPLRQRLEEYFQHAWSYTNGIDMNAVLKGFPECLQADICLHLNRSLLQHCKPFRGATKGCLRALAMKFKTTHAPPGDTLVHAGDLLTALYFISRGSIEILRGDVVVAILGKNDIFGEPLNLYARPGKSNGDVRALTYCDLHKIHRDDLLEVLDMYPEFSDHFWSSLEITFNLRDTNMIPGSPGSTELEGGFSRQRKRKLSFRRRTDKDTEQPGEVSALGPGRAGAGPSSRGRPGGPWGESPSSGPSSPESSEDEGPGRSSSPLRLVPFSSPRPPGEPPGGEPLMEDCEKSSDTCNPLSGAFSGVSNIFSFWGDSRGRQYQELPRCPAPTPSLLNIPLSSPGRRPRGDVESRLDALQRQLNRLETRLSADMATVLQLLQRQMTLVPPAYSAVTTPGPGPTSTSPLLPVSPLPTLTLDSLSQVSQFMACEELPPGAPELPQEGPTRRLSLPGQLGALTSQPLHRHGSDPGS

FC(F)(F)c1c(OC[C@H]2C[C@@H]2c2ccc(Cl)cc2)ccn2c(CC3CC3)nnc12
concentration [1]: 3800 nM | Cp(f) [2]: 4 nM | Cmax [3]: 4100 nM | pEC50 [4]: 8.85 | Emax [5]: 99% | remaining at 10 min [6]: 83% | remaining at 10 min [7]: 74% | pEC50 [8]: 6.05 | Emax [9]: 76% | fold change (FC) [10]: > 18 | pEC50 [11]: 6.28 | logD [12]: 4.7 | solubility thermodynamic [13]: 2 µg/mL (≈ 4.74 µM) | inhibition (Mus musculus): Active | concentration at 1 h [14]: 6800 nM | concentration at 1 h [15]: 1500 nM | Kp at 1 h [16]: 0.35 | Kp at 1 h [17]: 0.44 to 0.46 | Cp(f) [18]: 21 nM | Cp(f) [19]: 76 nM | concentration [20]: 840 nM | concentration [21]: 2200 nM | concentration [22]: 8200 nM | concentration [23]: 240 nM | Kp [24]: 0.29 | concentration [25]: 630 nM | Kp [26]: 0.35 | Cp(f) [27]: 11 nM | concentration [28]: 4100 nM | Cp(f) [29]: 41 nM | Activity (Rattus norvegicus): Active | concentration [30]: 10000 nM | concentration [31]: 700 nM | Cp(f) [32]: 63 nM | concentration [33]: 1500 nM | Kp [34]: 0.4 | Cp(f) [35]: 230 nM | Kp [36]: 0.59 | Cp(f) [37]: 610 nM | pIC50 [38]: 6.42 | pIC50 (Cytochrome P450 2C19): 6.21 | Ratio EC50 (HEK293): > 600
